Test results reported in PMC7557147 (Biochemical Journal, 2020).

How the values were obtained:
TgAPN2 [1] = target: T1, TgAPN2 (Toxoplasma gondii, UniProt S8G5K8, N1303Q/N840Q); format: biochemical, Toxoplasma gondii ME49; details: relative to hArg = 100%; 10 µM ACC substrate, 0.5 nM enzyme
TgAPN2 [2] = target: T1, TgAPN2; assay: TgAPN2 aminopeptidase activity under chelating conditions; format: biochemical, Toxoplasma gondii ME49; details: increasing EDTA concentration (0–200 mM); 20 nM enzyme, 15 µM substrate
TgAPN2 [3] = target: T1, TgAPN2; assay: Michaelis-Menten kinetics of TgAPN2 with fluorogenic Mec substrates; format: biochemical, Toxoplasma gondii ME49; details: substrate of TgAPN2, 20 nM enzyme, 37°C, pH 8.0
recombinant TgAPN2 = details: ref [14]; cited from earlier work

## N=C(N)NCCC[C@H](N)C(=O)O [Arg]
TgAPN2 [1]
  normalised relative activity of TgAPN2 toward P1 substrate: 81%

## O=C(O)CN(CCN(CC(=O)O)CC(=O)O)CC(=O)O [EDTA]
TgAPN2 [2]
  effect on TgAPN2 enzyme velocity: reduction in enzyme velocity

## Cc1cc(=O)oc2cc(NC(=O)[C@@H](N)CCCNC(=N)N)ccc12.Cl [L-Arg-Mec, L-arginine-7-amido-4-methylcoumarin hydrochloride]
TgAPN2 [3]
  Km: 148 ± 5.1 µM
  kcat: 1017 ± 15.2 s⁻¹
TgAPN2 [3]; listed as Arg-Mec
  kcat: 1017 s⁻¹

## Cc1cc(=O)oc2cc(NC(=O)[C@@H](N)CC(C)C)ccc12.Cl [L-Leu-Mec, L-leucine-7-amido-4-methylcoumarin hydrochloride]
TgAPN2 [3]
  Km: 31.8 ± 3 µM
  kcat: 1.32 ± 0.03 s⁻¹
TgAPN2 [3]; listed as Leu-Mec
  kcat: 1.32 s⁻¹

## CC(C)C[C@H](N)C(=O)O [Leu]
TgAPN2 [1]
  normalised relative activity of TgAPN2 toward P1 substrate: 26%

## NCCCC[C@H](N)C(=O)O [Lys]
TgAPN2 [1]
  normalised relative activity of TgAPN2 toward P1 substrate: 52%

## CC(C)C[C@@H](N)[C@H](O)C(=O)N[C@H](C(=O)N[C@H](C(=O)N[C@@H](CC(=O)O)C(=O)O)C(C)C)C(C)C [amastatin]
Recombinant TgAPN2
  inhibition of recombinant TgAPN2 (in words): inhibited

## CC(C)C[C@H](NC(=O)[C@@H](O)[C@H](N)Cc1ccccc1)C(=O)O [bestatin]
Recombinant TgAPN2
  inhibition of recombinant TgAPN2 (in words): inhibited

## NC(N)=NCCCC[C@H](N)C(=O)O [hArg, Homo-arginine]
TgAPN2 [1]
  normalised relative activity of TgAPN2 toward P1 substrate: 100%

## N[C@@H](CCc1ccccc1)C(=O)O [hPhe]
TgAPN2 [1]
  normalised relative activity of TgAPN2 toward P1 substrate: 18%

## N[C@@H](CCc1ccc(O)cc1)C(=O)O [hTyr]
TgAPN2 [1]
  normalised relative activity of TgAPN2 toward P1 substrate: 54%
